# Experimental data as given in patent US20090011424A1, “Cancer-suppressing agents” (Tokyo Medical and Dental University, priority 2005, published 2009).
# System: SMS-KAN cell
# Test: messenger RNA expression analysis, AceGene Human oligo chip 30 K, NR1I2-expressing clone B1 vs control clone
# Format: cell-based
# Conditions: 2nd: Cy5-B1/Cy3-control
# Source text: The NR1I2 gene has been known as a transcriptional factor. Thus, it is possible to know what type of gene expression is controlled by obtaining messenger RNAs from cells causing NR1I2 protein expression and cells not causing such expression, and comparing the expression levels thereof with each other. As described above, the NR1I2 gene protein may have an effect of inhibiting cancer. […] Therefore, pCMV-Tag3 vector not containing a foreign gene as a control was introduced into SMS-KAN cell, and pCMV-Tag3-VP-NR1I2 containing the NR1I2 gene as a test sample was introduced into SMS-KAN cell. As a result, a control cell clone and a cell clone B1 permanently causing NR1I2 protein expression were obtained. Thereafter, analysis of messenger RNA expression was carried out using these two types of cells and an AceGene Human oligo chip 30 K (DNA Chip Research Inc.), with which the expression levels of 30,000 human genes can be observed (Inoue. J., et al. Am J. Pathol. 165. 71. 2004). A complementary strand DNA (complimentary DNA) was prepared, into which aminoallyl-dUTP (Ambion Inc.) was incorporated using an Oligo (dT) 12-18 primer. Then, the aminoallyl group was labeled with reactive Cy3 (cyanin 3) and Cy5 (cyanin 5) (Amersham Biosciences) via a coupling reaction. Hybridization was performed twice (1st: Cy3-B1/Cy5-control; 2nd: Cy5-B1/Cy3-control). Signals were measured using a GenePix 4000B (Axon Instruments) so as to be analyzed by GenePix Pro 4.1 software (Axon Instruments). Tables 3 and 4 are lists of genes, where in the cases of SMS-KAN cells into which the NR1I2 gene had been introduced in the two experiments, the expression levels were 1.5-fold or greater than the expression level in the case of a control cell clone.
substance,measurement,value
"NR1I2 gene: human-derived gene, nuclear receptor subfamily 1, group I, member 2 (pregnane X receptor, PXR), nucleotide sequence SEQ ID NO: 1",ADAMTS2 expression level Ratio 2nd,1.60
same,ADNP expression level Ratio 2nd,1.63
same,AP3S2 expression level Ratio 2nd,2.55
same,APEG1 expression level Ratio 2nd,1.91
same,APOA1 expression level Ratio 2nd,2.00
same,APP expression level Ratio 2nd,2.05
same,ARHC expression level Ratio 2nd,1.52
same,ARL2 expression level Ratio 2nd,1.53
same,ASCL2 expression level Ratio 2nd,2.46
same,ASH1 expression level Ratio 2nd,1.83
same,B4GALT5 expression level Ratio 2nd,1.56
same,BARD1 expression level Ratio 2nd,1.93
same,BCAT2 expression level Ratio 2nd,1.63
same,BLP2 expression level Ratio 2nd,1.53
same,BMP15 expression level Ratio 2nd,1.52
same,C6orf25 expression level Ratio 2nd,1.76
same,CCNA1 expression level Ratio 2nd,1.92
same,CDC7L1 expression level Ratio 2nd,1.86
same,CISH expression level Ratio 2nd,2.17
same,CORO2A expression level Ratio 2nd,1.73
same,Cab45 expression level Ratio 2nd,1.86
same,DKFZp434G05 expression level Ratio 2nd,1.58
same,DKKL1 expression level Ratio 2nd,1.56
same,DNA12 expression level Ratio 2nd,1.54
same,EPHX1 expression level Ratio 2nd,2.25
same,ERCC1 expression level Ratio 2nd,1.84
same,ETR101 expression level Ratio 2nd,1.67
same,EXT1 expression level Ratio 2nd,1.89
same,FLJ10737 expression level Ratio 2nd,1.54
same,FLJ12389 expression level Ratio 2nd,2.19
same,FLJ13197 expression level Ratio 2nd,2.99
same,FLJ13479 expression level Ratio 2nd,1.94
same,FLJ20288 expression level Ratio 2nd,1.83
same,FLJ20555 expression level Ratio 2nd,1.53
same,FLJ23462 expression level Ratio 2nd,1.67
same,FOFR3 expression level Ratio 2nd,1.59
same,GLI2 expression level Ratio 2nd,2.72
same,GNE expression level Ratio 2nd,1.90
same,GSTT2 expression level Ratio 2nd,3.28
same,GUCY1A3 expression level Ratio 2nd,1.63
same,HHEX expression level Ratio 2nd,1.57
same,HNT expression level Ratio 2nd,1.57
same,HPCL2 expression level Ratio 2nd,1.74
same,ICAM5 expression level Ratio 2nd,1.54
same,IFIT4 expression level Ratio 2nd,1.54
same,INSL6 expression level Ratio 2nd,1.68
same,IRC039700 expression level Ratio 2nd,2.15
same,KCNJ15 expression level Ratio 2nd,1.91
same,KIAA0161 expression level Ratio 2nd,1.56
same,KIAA0212 expression level Ratio 2nd,2.04
same,LBP-9 expression level Ratio 2nd,1.95
same,LDB1 expression level Ratio 2nd,1.60
same,LICAM expression level Ratio 2nd,1.89
same,LILRB5 expression level Ratio 2nd,1.76
same,LOC51024 expression level Ratio 2nd,1.69
same,LRP8 expression level Ratio 2nd,1.54
same,LZLP expression level Ratio 2nd,1.61
same,MAFG expression level Ratio 2nd,2.55
same,MGC2306 expression level Ratio 2nd,1.58
same,MGC2941 expression level Ratio 2nd,1.93
same,MPP6 expression level Ratio 2nd,1.70
same,MT-ACT48 expression level Ratio 2nd,1.61
same,OCM expression level Ratio 2nd,1.72
same,OMP expression level Ratio 2nd,1.58
same,OPA3 expression level Ratio 2nd,2.49
same,ORC5L expression level Ratio 2nd,1.69
same,ORM1 expression level Ratio 2nd,1.60
same,PCDHA4 expression level Ratio 2nd,1.97
same,PCDHB10 expression level Ratio 2nd,1.66
same,PDCD8 expression level Ratio 2nd,2.03
same,PFKFB4 expression level Ratio 2nd,4.97
same,PGAM1 expression level Ratio 2nd,2.16
same,PITPN expression level Ratio 2nd,1.75
same,PLA2G2A expression level Ratio 2nd,3.05
same,PLCE1 expression level Ratio 2nd,2.94
same,PLEKHA1 expression level Ratio 2nd,1.56
same,PRO2121 expression level Ratio 2nd,1.91
same,PRO2831 expression level Ratio 2nd,1.53
same,RDH5 expression level Ratio 2nd,1.64
same,RP1 expression level Ratio 2nd,1.56
same,RPL39L expression level Ratio 2nd,2.34
same,RPS16 expression level Ratio 2nd,1.59
same,SC65 expression level Ratio 2nd,1.58
same,SCD expression level Ratio 2nd,1.77
same,SCN2B expression level Ratio 2nd,1.54
same,SLC22A11 expression level Ratio 2nd,1.68
same,SNAP91 expression level Ratio 2nd,3.43
same,STK11 expression level Ratio 2nd,1.64
same,SURF1 expression level Ratio 2nd,1.95
same,TCEA1 expression level Ratio 2nd,1.56
same,TGM2 expression level Ratio 2nd,1.62
same,TIMM10 expression level Ratio 2nd,1.89
same,TLAL1 expression level Ratio 2nd,2.37
same,TMPRSS4 expression level Ratio 2nd,1.57
same,TOP3B expression level Ratio 2nd,1.61
same,TPARL expression level Ratio 2nd,1.58
same,TRPV4 expression level Ratio 2nd,1.80
same,TSPAN-1 expression level Ratio 2nd,1.69
same,UXT expression level Ratio 2nd,2.94
same,WHSC2 expression level Ratio 2nd,1.67
